{"source": "patent US10376553B2", "about": "“Pharmaceutical composition for preventing and treating chronic obstructive lung disease containing, as active ingredient, Magnoliae flos extract, fraction, or active fraction thereof” (KOREA RESEARCH INSTITUTE OF BIOSCIENCE AND BIOTECHNOLOGY, priority 2015, dated 2019)", "key": {"TNF-α": {"test_system": "TNF-α", "assay": "TNF-α level in BALF of the COPD model (ELISA)", "format": "in vivo, C57BL/6N mice", "conditions": "BALF, vs COPD-induced group", "method": "(§1) Cytokines were measured in the cell supernatant obtained in <Test Example 6-3> above by the following method. Specifically, the levels of IL-6 (R & D System, USA) and TNF-α (BD Bioscience, USA) in the separated BALF were measured by enzyme-linked immuno-sorbent assay (ELISA). Each cytokine analysis was carried out according to the manufacturer's test method."}, "MUC5AC promoters": {"test_system": "MUC5AC promoters", "assay": "MUC5AC promoter luciferase reporter assay in H292 cells", "format": "cell-based, human", "conditions": "Table 7, MUC5AC promoter luciferase reporter, 10 μM, TNF-α 20 ng/mL", "description": "The degree of activation of luciferase was confirmed using a One-glow Luciferase Assay System (Promega).\nAs a result, as shown in the following Table 7, the activity of the MUC5AC promoters increased in the group treated with TNF-α."}, "[1]": {"test_system": "inflammatory cells in the bronchoalveolar lavage fluid", "assay": "Inflammatory cells in bronchoalveolar lavage fluid of the COPD mouse model (cigarette smoke + LPS)", "format": "in vivo, C57BL/6N mice", "conditions": "BALF, vs COPD-induced group", "method": "Six-week-old male SPF (specific pathogen-free) C57BL/6N mice (22 to 24 g) were supplied by Koatech (Korea). These animals were fed with a sufficient amount of solid feed (no antibiotics, Samyang Feed Co.) and water until the day of the experiment. They were allowed to adapt for 1 week in a light-dark cycle environment at a temperature of 22±2° C. and a humidity of 55±15%, and then subjected to the experiment.\nThe animal model was exposed to cigarette smoke to induce chronic obstructive pulmonary disease. 3R4F Kentuchy Reference Cigarettes as standard cigarettes for use to generate cigarette smoke were supplied by University of California (USA). The standard cigarettes contain 9.4 mg of tar, 11 mg of total particle matter (TPM), and 12 mg of carbon monoxide per 1 cigarette. The standard cigarettes were used after harmonization for 48 hours to 72 hours at a temperature of 22±1° C. and a humidity of 60±2%. Further, Cigarette Smoke Generator manufactured by Korea BioLink (Korea) was used for exposure to cigarette smoke. Cigarette smoke was inhaled for 1 hour (8 pcs/hour) for 7 days from 1 hour after oral administration of a sample. 10 μg of LPS (lipopolysaccharide) in PBS 50 μL was injected intranasally to each mouse on the 4th day of the experiment after the mouse was anesthetized with zoletyl 1 hour before the exposure to cigarette smoke. The smoking condition was 8 puffs per 1 standard cigarette (volume: 45 mL, duration: 2 seconds, and interval: 1 time/min).\nThe active fraction of Magnoliae flos (15, 30 mg/kg) and roflumilast (10 mg/kg) as therapeutic substances were dissolved in 0.5% sodium carboxymethyl cellulose and were orally administered 1 hour before the exposure to cigarette smoke.\nThe experimental groups were divided into (i) normal control (NC) group; (ii) cigarette smoke+LPS exposure group (COPD); (iii) experimental group administered with roflumilast (ROF) (10 mg/kg, p.o) 1 hour before the exposure to cigarette smoke+LPS; and (iv) experimental group administered with the active fraction of Magnoliae flos (15, 30 mg/kg, p.o; Magnoliae flos 15 and Magnoliae flos 30) 1 hour before the exposure to cigarette smoke+LPS. […] Then, they were administered in the same manner as above.\nThe bronchial alveolar lavage fluid was separated from the animal model treated with the active fraction and the compounds of Magnoliae flos in <Test Example 6-2> above in the following manner, and the number of inflammatory cells was measured.\nSpecifically, a mouse sonde was inserted into the bronchial tube, a 1 mL syringe containing 0.7 mL of DPBS (Dulbecco's Phosphate-Buffered Saline) was connected thereto, and DPBS was injected into the lung. The injected DPBS was recovered, and this procedure was repeated twice. The bronchoalveolar lavage fluid separated by DPBS was centrifuged at 1,500 rpm for 15 minutes to make a cell pellet. The supernatant was stored frozen at −70° C. for cytokine analysis. Each cell obtained was suspended in DPBS, attached to a slide glass using a cytospin centrifuge, and Diff-Quik stained. The number of inflammatory cells in each sample was counted through microscopic examination, and the inhibition rate was calculated according to the following Equation 3.\nInhibition rate=(Value of COPD-induced group−value of target substance administered group)×100/(Value of COPD-induced group) [Equation 3]"}, "IL-6": {"test_system": "IL-6", "assay": "IL-6 level in BALF of the COPD model (ELISA)", "format": "in vivo, C57BL/6N mice", "conditions": "BALF, vs COPD-induced group", "method": "as §1"}, "H292 cells": {"test_system": "H292 cells", "assay": "Cytotoxicity (CCK-8 cell viability) of the compounds of Magnoliae flos in H292 cells", "format": "cell-based, human", "conditions": "24 h, vs 0.2% DMSO control = 100%", "method": "Then, 10 μl of the CCK-8 solution (Dojindo Laboratories, Japan) was mixed with 90 μl of the medium, and 100 μl thereof was added per well. After incubation for a minimum of 30 minutes to a maximum of 4 hours, the absorbance was measured at 570 nm. The cell viability was calculated according to the following Equation 2 with a negative control group treated with 0.2% DMSO as a reference of 100%.\nCell viability=(Compound treated OD 570 nm value)×100/(Negative control group OD 570 nm value) [Equation 2]"}, "reactive oxygen species": {"test_system": "reactive oxygen species", "assay": "Production of active oxygen species in BALF of the COPD model (DCF-DA)", "format": "in vivo, C57BL/6N mice", "conditions": "for Active oxygen inhibition rate (%): vs COPD-induced group", "method": "Production of active oxygen species in the bronchoalveolar lavage fluid obtained in <Test Example 6-3> above was confirmed by the following method.\nSpecifically, the separated BALF (200 μL) was treated to the final concentration of 20 μM of DCF-DA (dihydrodichlorofluorescein diacetate, Sigma-Aldrich, USA), followed by culturing for 30 minutes and measurement using Fluorescence (Molecular Device, USA). The inhibition rate was calculated by Equation 3 above."}, "MUC5AC protein": {"test_system": "MUC5AC protein", "assay": "Inhibition of MUC5AC protein production (immunoassay) by the compounds", "format": "cell-based, human", "conditions": "for MUC5AC secretion (Relative amount to TNF-α treated group, %) / Inhibition rate (%): TNF-α 20 ng/mL; for Inhibition rate (%): MUC5AC secretion; for production of MUC5AC (in words): vs TNF-α treated group = 100%", "method": "For immunoassay of the resulting MUC5AC, the supernatant (50 uL) recovered was dispensed on to a 96-well plate and dried in a thermostat set at 50° C. It was washed with PBS supplemented with 1% BSA and reacted with an MUC5AC antibody (abcam, USA) at room temperature for 1 hour. A secondary antibody was dispensed thereto for reaction for 1 hour. It was washed again and then reacted with a 3,3′,5,5′-tetramethylbenzidine peroxide solution for 20 minutes. After the reaction was stopped with a sulfuric acid solution, the degree of color development was measured at 450 nm.\nAs a result, as shown in the following Table 6, the amount of MUCSAC secretion increased in the group treated with TNF-α."}}, "data": [{"compound": "COc1ccc([C@H]2OC[C@H]3[C@@H]2CO[C@@H]3c2cc(OC)c(OC)c(OC)c2)cc1OC", "note": "[Compound S2, magnolin]", "values": [{"measurement": "TNF-α inhibition rate (%)", "setting": "TNF-α; 15 mg/kg p.o.", "result": "29.2 ± 4.8", "unit": "%"}, {"measurement": "TNF-α inhibition rate (%)", "setting": "TNF-α; 30 mg/kg p.o.", "result": "31.0 ± 7.2", "unit": "%"}, {"measurement": "Inhibition rate (%)", "setting": "MUC5AC promoters", "result": 55.2, "unit": "%"}, {"measurement": "MUC5AC secretion (Relative amount to TNF-α treated group, %)", "setting": "MUC5AC promoters", "result": "44.8 ± 7.33", "unit": "%"}, {"measurement": "Inhibition rate of inflammatory cell infiltration (%) Macrophage", "setting": "[1]; 15 mg/kg p.o.", "result": "21.6 ± 6.3", "unit": "%"}, {"measurement": "Inhibition rate of inflammatory cell infiltration (%) Neutrophil", "setting": "[1]; 15 mg/kg p.o.", "result": "47.2 ± 3.6", "unit": "%"}, {"measurement": "Inhibition rate of inflammatory cell infiltration (%) Total inflammatory cells", "setting": "[1]; 15 mg/kg p.o.", "result": "44.7 ± 3.9", "unit": "%"}, {"measurement": "Inhibition rate of inflammatory cell infiltration (%) Macrophage", "setting": "[1]; 30 mg/kg p.o.", "result": "10.7 ± 9.8", "unit": "%"}, {"measurement": "Inhibition rate of inflammatory cell infiltration (%) Neutrophil", "setting": "[1]; 30 mg/kg p.o.", "result": "31.0 ± 7.1", "unit": "%"}, {"measurement": "Inhibition rate of inflammatory cell infiltration (%) Total inflammatory cells", "setting": "[1]; 30 mg/kg p.o.", "result": "30.7 ± 5.3", "unit": "%"}, {"measurement": "IL-6 inhibition rate (%)", "setting": "IL-6; 15 mg/kg p.o.", "result": "64.9 ± 4.8", "unit": "%"}, {"measurement": "IL-6 inhibition rate (%)", "setting": "IL-6; 30 mg/kg p.o.", "result": "36.6 ± 8.9", "unit": "%"}, {"measurement": "Viability of H292 cells (%, average ± deviation)", "setting": "H292 cells; 2.5 μM", "result": "121.81 ± 2.42", "unit": "%"}, {"measurement": "Viability of H292 cells (%, average ± deviation)", "setting": "H292 cells; 5 μM", "result": "119.94 ± 2.81", "unit": "%"}, {"measurement": "Viability of H292 cells (%, average ± deviation)", "setting": "H292 cells; 10 μM", "result": "118.37 ± 2.55", "unit": "%"}, {"measurement": "Viability of H292 cells (%, average ± deviation)", "setting": "H292 cells; 20 μM", "result": "112.99 ± 4.16", "unit": "%"}, {"measurement": "Active oxygen inhibition rate (%)", "setting": "reactive oxygen species; 15 mg/kg p.o.", "result": "21.8 ± 4.4", "unit": "%"}, {"measurement": "rate of inhibiting reactive oxygen compared with ROF drug control group (in words)", "setting": "reactive oxygen species; 30 mg/kg", "result": "higher rates of inhibiting reactive oxygen than that of the drug control group treated with ROF"}, {"measurement": "Active oxygen inhibition rate (%)", "setting": "reactive oxygen species; 30 mg/kg p.o.", "result": "14.0 ± 8.3", "unit": "%"}, {"measurement": "MUC5AC secretion (Relative amount to TNF-α treated group, %)", "setting": "MUC5AC protein; 2.5 μM", "result": "97.57 ± 0.78", "unit": "%"}, {"measurement": "MUC5AC secretion (Relative amount to TNF-α treated group, %)", "setting": "MUC5AC protein; 5 μM", "result": "81.17 ± 0.82", "unit": "%"}, {"measurement": "MUC5AC secretion (Relative amount to TNF-α treated group, %)", "setting": "MUC5AC protein; 10 μM", "result": "65.67 ± 0.99", "unit": "%"}, {"measurement": "Inhibition rate (%)", "setting": "MUC5AC protein; 2.5 μM", "result": 2.43, "unit": "%"}, {"measurement": "Inhibition rate (%)", "setting": "MUC5AC protein; 5 μM", "result": 18.83, "unit": "%"}, {"measurement": "Inhibition rate (%)", "setting": "MUC5AC protein; 10 μM", "result": 34.33, "unit": "%"}, {"measurement": "production of MUC5AC (in words)", "setting": "MUC5AC protein", "result": "inhibited in a manner depending on the concentrations"}, {"measurement": "production of MUC5AC (in words)", "setting": "MUC5AC protein; listed as Formula 3", "result": "inhibited the production of MUC5AC in a manner depending on concentration"}]}]}
